{
  "source": "patent US20120115782A1",
  "about": "“COMPOSITIONS AND METHODS FOR TREATING OR INHIBITING LIVER INJURY” (Yale University, priority 2009, published 2012)",
  "key": {"[1]": {"system": "APAP induced hepatotoxicity in wild-type mice", "test": "Acetaminophen (APAP) induced hepatotoxicity in mice: survival, serum ALT, liver histology", "type": "in vivo, mouse (C57BL/6)", "procedure": "Animals. C57BL/6 mice were purchased from commercial sources. NALP3 −/−, IL-18 −/− ASC −/−, IPAF −/− and TLR9 −/− mice were backcrossed nine generations onto the C57BL/6 background. Caspase 1 −/− mice were backcrossed 5-6 generations onto the C57BL/6 background. These mice have been described previously (39, 40). IL-1β was neutralized in by using the anti-IL-1β antibody from clone B122 (a gift of R. Schreiber, Washington University) at a dose of 0.2 mg/mouse iv twice a day for a total of 48 hours after giving APAP. Control mice received Armenian hamster isotype control antibody. For survival experiments animals were euthanized when they became moribund using criteria of lack of response to stimuli or lack of righting reflex. Animal protocols were approved by the Yale University animal care and use committee. [include references for IPAF−/− (M. Lara-Tejero et al. JEM 2006) and IL-18−/−. Need to add TLR9−/− and TLR3−/−] Acetaminophen induced hepatotoxicity. APAP (Sigma, Mo.) solution was made fresh for each experiment in PBS at 20 mg/ml and heated in a water bath to 55° C. to dissolve. APAP was dosed at 500 mg/kg and injected I.P after 15 hrs of starvation. Animals were euthanized by ketamine/xylazine injection at 12 hours for collection of serum, isolation of liver lymphocytes or collection of liver tissue for histology, or they were observed every four hours for 72 hours until they reached criteria for euthanasia (lack of response to stimuli or lack of righting reflex).\nAspirin/clopidogrel/SC-560. Aspirin (Sigma, Mo.) was made fresh for each experiment. For dosing prior to APAP it was dissolved in single deionized water at 60 mg/l and heated to 42° C. with rapid stirring to dissolve, then rapidly placed in an ice water bath to cool. Aspirin in water was given to the mice 60-72 hours prior to APAP injection. Assuming water consumption of 3-5 ml per day this dose would be equivalent to a 300-500 mg dose in an 80 kg adult human. For co-administration of APAP and aspirin, aspirin was gavaged at a dose of 6 mg/kg in a volume of 100 ul of water immediately after ip injection of APAP. Clopidogrel (Gilead Pharmaceuticals, CA.) was dissolved in PBS at 6 mg/ml and administered by gavage of 100 ul, 30 mg/kg, every 24 hours beginning 48 hours prior and ending 24 hours after APAP injection. Cox-1 inhibitor (SC-560). SC-560 (Cayman chemical, MI) was dissolved at 50 mg/ml in DMSO and further dissolved in PBS in order to gavage a dose of 5 mg/kg in 100 ul. It was administered twice per day beginning 60 hours prior to Tylenol and continued for 48 hours after APAP injection as previously established (41).\nUric Acid Peritonitis. Peritonitis was induced with uric acid crystals as previously described by injecting 3 mg of MSU intraperitoneally per mouse (27). Three hours after injection peritoneal lavage was performed on mice euthanized by isoflurane inhalation. Neutrophil infiltration was evaluated by flow cytometry. The percent of Gr-1 (BD Pharmingen, CA) positive cells was multiplied by the total cell counts. Liver sinusoidal endothelial cell (LSEC) isolation. After in-situ pronase digestion the non-parenchymal cell suspension is centrifuged for 5 min at 100 g to remove most of the parenchymal cells. This process is repeated until no pellet is observed. The supernatant enriched in LSEC is centrifuged for 10 min at 350 g. The pellet is resuspended in PBS and centrifuged for 10 min at 350 g. The cells are resuspended in. PBS and layered (3.3 ml) on the top of two-step percoll gradient (put the 5 ml of 50% percoll at the bottom and put the 6.6 ml of 25% percoll at the top). The gradients are centrifuged at 900 g for 20 min and the intermediate layer included LSEC is collected and cultured in the media (EGM™-2MV—Microvascular Endothelial Cell Medium-2, CAMBREX, Charles City, Iowa). ODN2088 and IRS 954 injection."}, "pro-IL-1β transcript": {"system": "pro-IL-1β transcript", "test": "Q-PCR of whole liver 12 hours after APAP: pro-IL-1β", "type": "in vivo, mouse", "conditions": "aspirin pre-treatment in drinking water", "procedure": "(§1) Uric Acid Peritonitis. Peritonitis was induced with uric acid crystals as previously described by injecting 3 mg of MSU intraperitoneally per mouse (27). Three hours after injection peritoneal lavage was performed on mice euthanized by isoflurane inhalation. Neutrophil infiltration was evaluated by flow cytometry. The percent of Gr-1 (BD Pharmingen, CA) positive cells was multiplied by the total cell counts. Liver sinusoidal endothelial cell (LSEC) isolation. After in-situ pronase digestion the non-parenchymal cell suspension is centrifuged for 5 min at 100 g to remove most of the parenchymal cells. This process is repeated until no pellet is observed. […] TLR9 antagonist (ODN2088, 50 microg×2) or PBS, were injected ip into wild-type mice immediately after and at 6 hours after APAP injection and total mouse liver was obtained 12 hours after APAP injection for quantitative Q-PCR for IL-1β. […] Quantitative Real-time PCR. […] Expression of glyceraldehyde 3-phosphate dehydrogenase was used to standardize the samples, and the results were expressed as a ratio compared with untreated HSCs. Quantitative Real-time PCR for mRNA expression of IL-18, IL-1β, TNF-α and IFN-γ. […] Quantitative real-time PCR (Q-PCR) was performed for IL-18 and IL-1β using commercial primer-probe sets (Applied Biosystems, CA) and the Applied Biosystem 7500 real time PCR system. […]"}, "[2]": {"system": "THP1 cells (pro-IL-1β transcript)", "test": "THP1 cells stimulated with LPS, real-time PCR for pro-IL-1β", "type": "cell-based, human", "conditions": "overnight with aspirin (1.5 mM, 0.15 mM), then LPS 10 μg/ml for 8 hours", "procedure": "as §1"}, "NALP3 inflammasome": {"system": "NALP3 inflammasome", "test": "Uric acid (MSU crystal) peritonitis, model of NALP3 inflammasome activation", "type": "in vivo", "conditions": "low dose aspirin (60 mg/l) in drinking water three days prior; lavage 3 hours after MSU 3 mg/mouse ip", "procedure": "as §1"}, "[3]": {"system": "APAP toxicity in mice and rats", "conditions": "aspirin 200-600 mg/kg; cited from earlier work"}, "pro-IL-18 transcript": {"system": "pro-IL-18 transcript", "test": "Q-PCR of whole liver 12 hours after APAP: pro-IL-18", "type": "in vivo, mouse", "conditions": "aspirin pre-treatment in drinking water", "procedure": "as §1"}, "TNF-α": {"system": "TNF-α", "test": "Q-PCR of whole liver after APAP: TNF-α", "type": "in vivo, mouse", "conditions": "aspirin treatment", "procedure": "as §1"}, "IL-1β": {"system": "IL-1β", "test": "ELISA for serum IL-1β after APAP", "type": "in vivo, mouse", "conditions": "ASA in drinking water"}, "IFN-γ": {"system": "IFN-γ", "test": "Q-PCR of whole liver after APAP: IFN-γ", "type": "in vivo, mouse", "conditions": "aspirin treatment", "procedure": "as §1"}},
  "data": [
    {"smiles": "COc1ccc(-n2nc(C(F)(F)F)cc2-c2ccc(Cl)cc2)cc1", "note": "[SC-560]", "values": [
      {"measurement": "protection against APAP toxicity (survival)", "setting": "[1]; SC-560 gavage 5 mg/kg twice daily, from 60 hours prior to 48 hours after APAP", "value": "did not protect"}
    ]},
    {"smiles": "CC(=O)Oc1ccccc1C(=O)O", "note": "[aspirin, acetylsalicylic acid]", "values": [
      {"measurement": "increase in pro-IL-1β message by APAP, whole liver", "setting": "pro-IL-1β transcript", "value": "reduced to normal levels"},
      {"measurement": "survival after APAP", "setting": "[1]; aspirin 60 mg/l in drinking water for 3 days before APAP 500 mg/kg ip, 72 hours", "value": "markedly improved survival"},
      {"measurement": "survival, aspirin given concordantly with APAP", "setting": "[1]; aspirin gavaged 6 mg/kg immediately after ip APAP", "value": 43, "unit": "%+/−11%"},
      {"measurement": "liver histology (H&E) 12 hours after APAP", "setting": "[1]; aspirin in drinking water three days prior to APAP", "value": "significant reduction in APAP induced liver injury and hemorrhage"},
      {"measurement": "serum ALT 12 hrs after APAP", "setting": "[1]; pre-treatment with aspirin in drinking water", "value": "significantly lower serum ALT"},
      {"measurement": "up-regulation of pro-IL-1β transcript by LPS in THP1 cells", "setting": "[2]", "value": "reduced"},
      {"measurement": "neutrophil exudates (Gr-1 positive) in MSU peritonitis", "setting": "NALP3 inflammasome", "value": "eightfold reduction"},
      {"measurement": "liver injury from APAP", "setting": "[3]", "value": "reduce liver injury"},
      {"measurement": "survival from APAP", "setting": "[3]", "value": "not improve survival"},
      {"measurement": "increase in pro-IL-18 message by APAP, whole liver", "setting": "pro-IL-18 transcript", "value": "reduced to normal levels"},
      {"measurement": "expression of TNF-α, whole liver after APAP", "setting": "TNF-α", "value": "reduced"},
      {"measurement": "serum IL-1β levels induced by APAP", "setting": "IL-1β", "value": "significant reduction"},
      {"measurement": "expression of IFN-γ, whole liver after APAP", "setting": "IFN-γ", "value": "reduced"}
    ]},
    {"smiles": "COC(=O)[C@H](c1ccccc1Cl)N1CCc2sccc2C1", "note": "[clopidogrel]", "values": [
      {"measurement": "protection against APAP toxicity (survival)", "setting": "[1]; clopidogrel gavage 30 mg/kg every 24 hrs, from 48 hours prior to 24 hours after APAP", "value": "did not protect"}
    ]}
  ]
}
